Measurements published in US20200316087A1, “NOVEL COMBINATION THERAPY FOR ANXIETY DISORDERS, EPILEPSY, AND PAIN” (priority 2017, published 2020).

System: motor performance on an inverted screen
Experiment: Rat inverted screen test (motor impairment)
Conditions: 300 mg/kg, rats; positive control
From the text: The motor effects of Diazepam and KRM-II-81 were studied on the inverted screen. The inverted screen test is used to measure whether or not a test compound induces muscle relaxation. When a test subject is placed on a wire screen which is then inverted, the reaction is to climb to the opposite side so they are no longer hanging upside down.
Male, Sprague Dawley rats (Harlan Sprague Dawley, Indianapolis, Ind.) were used and weighed 90-110 g when evaluated in experiments. […] Rats were placed onto the top of a wire screen, which was then inverted so that the rats were hanging upside down.
Male Sprague-Dawley rats (n=5) were dosed i.p. (vehicle=1% carboxymethyl cellulose) with diazepam (3, 10, or 30 mg/kg), KRM-II-81 (10, 30, or 60 mg/kg) or HZ-166 (30 mg/kg) 30 minutes prior to testing. Rats were placed onto the top of a wire screen, which was then inverted so that the rats were hanging upside down. […] Results were analyzed using ANOVA (Dunnett's test: *P<0.05).
For the in vivo assays, minimal effective doses (MED) were calculated in mg/kg. MED was defined as the lowest dose administered that produced statistically significant protection compared to vehicle control in the anticonvulsant assays. The MED, or minimal toxic dose (MTD) for motor impairment, was the minimal dose required to produce statistically-significant impairment in motor performance. Doses tested are shown in the figures and tables and are generally dosed in ½ log increments. The protective index (PT) was calculated at the MTD/MED.

## CCCC(CCC)C(=O)O [valproate, Valproic acid, reference compound]
  motor impairment on inverted screen: full motor impairment
